Experimental data taken from article PMC6222791, “(−)-Asarinin from the Roots of Asarum sieboldii Induces Apoptotic Cell Death via Caspase Activation in Human Ovarian Cancer Cells” (Molecules : A Journal of Synthetic Chemistry and Natural …, 2018).
Read-outs that look alike come from different tables or passages of the source.

Key:
A2780 cells [1] = assay: MTT cytotoxicity assay, A2780; assay type: cell-based; settings: Homo sapiens, read-out: IC50 (cytotoxicity)
SKOV3 cells [2] = assay: MTT cytotoxicity assay, SKOV3; assay type: cell-based; settings: Homo sapiens, read-out: IC50 (cytotoxicity)
[3] = MTT cytotoxicity assay, IOSE80PC; settings: human
Protocol: (§1) Human ovarian cancer cell lines (A2780 and SKOV3 cells) were obtained from the American Type Culture Collection (ATCC), and immortalized ovarian surface epithelial cell lines (IOSE80PC) were provided by Dr. N. Auersperg (University of British Columbia, Vancouver, British Columbia, Canada) and Dr. A. Godwin (Fox Chase Cancer Center, Philadelphia, PA, USA).
(§2) A MTT assay was performed to evaluate the cell viability. The MTT was obtained from Molecular Probes Inc. (Eugene, OR, USA). Briefly, the cells (1.0 × 10^5/well) were seeded in a 96-well plate and incubated for 24 h. […] MTT solution was added into each well (final concentration; 0.5 mg/mL) and the plates were incubated for an additional 4 h. The medium was removed and 50 μL of dimethyl sulfoxide (DMSO) was added. The optical density was measured at 540 nm using a microplate spectrophotometer (SpectraMax; Molecular Devices, Sunnyvale, CA, USA). To investigate the involvement of caspases in asarinin (1)-induced cell death, a MTT assay was also performed using caspase inhibitors. The cells were pretreated with caspase inhibitors (50 μM) for 30 min, and treated with (−)-asarinin (1) (A2780, 40 μM; and SKOV3, 60 μM) for 48 h. Caspase-3 inhibitor z-DEVD-fmk, caspase-8 inhibitor z-IETD-fmk, and caspase-9 inhibitor z-LEHD-fmk were purchased from Calbiochem (Bad Soden, Germany).

EBV-EA activation = test system: EBV-EA activation; set-up: method as in PMID 9255419, doi:10.1016/S1572-5995(00)80047-2; settings: Raji cells; cited from earlier work
[4] = test system: human leukemia HL-60 cells; set-up: method as in PMID 11507740; settings: cited from earlier work
caspase-3 [5] = assay: Western blot caspase activation, A2780; assay type: cell-based, human; settings: A2780, 48 h, procaspase level by Western blot
Protocol: (§3) The cells were treated with (−)-asarinin (1) and incubated for 48 h. The cells were rinsed twice with ice-cold PBS and lysed with protein lysis buffer (Intron Biotechnology, Seoul, Korea) containing protease inhibitors (0.5 mM PMSF and 5 μg/mL aprotinin). The lysates were mixed with 5X sodium dodecyl sulfate (SDS) sample buffer and boiled for 5 min for denaturation. Total protein was run on 10–12% SDS-PAGE gels and electrotransferred onto a polyvinylidene difluoride (PVDF) membrane. The membrane was immunoblotted using specific primary antibodies overnight at 4 °C following blocking with 5% non-fat dry milk for 30 min–1 h. After washing, the membrane was incubated with horseradish peroxidase-conjugated secondary antibody (1:1000–2000) at room temperature for 1−2 h. After washing, immunepositive bands were visualized using an ECL chemiluminescent system and analyzed by Image Quant LAS-4000 (Fujifilm Life science, Tokyo, Japan). Anti-caspase-3 and b-actin antibodies were obtained from Santa Cruz Biotechnology (Santa Cruz, CA, USA). Caspase-9 antibody was purchased from Cell Signaling (Beverly, MA, USA). Caspase-8 antibody was obtained from BD Biosciences (San Jose, CA, USA).

caspase-8 [6] = assay: Western blot caspase activation, A2780; assay type: cell-based, human; settings: A2780, 48 h, procaspase level by Western blot
Protocol: as §3

caspase-9 [7] = assay: Western blot caspase activation, A2780; assay type: cell-based, human; settings: A2780, 48 h, procaspase level by Western blot
Protocol: as §3

A2780 cells [8] = assay: PI/Annexin V-FITC double staining, A2780; assay type: cell-based, human; settings: A2780, 48 h, increased by up to
Protocol: (§4) Annexin V- FITC was obtained from BD Biosciences (San Jose, CA, USA). The cells were treated with (−)-asarinin (1) and incubated for 48 h. The cells were rinsed twice with ice-cold PBS and suspended with 100 μL of binding buffer (10 mM HEPES/NaOH, 140 mM Nacl, 2.5 mM CaCl2, PH 7.4). A total of 5 μL of FITC-conjugated annexin V and 5 μL of PI ([…]) were added into the cell suspension, and the mixture was incubated in a dark place at room temperature for 15 min. The cells were analyzed using FACS cater-plus flow cytometry (guava easy cyte^TM); at least 10,000 cells per each group were counted.

SKOV3 cells [9] = assay: PI/Annexin V-FITC double staining, SKOV3; assay type: cell-based, human; settings: SKOV3, 48 h, increased by up to
Protocol: as §4

SKOV3 cells [10] = assay: Cell cycle analysis (PI staining, flow cytometry), SKOV3; assay type: cell-based, human; settings: SKOV3, 48 h
Protocol: (§5) The cells were treated with (−)-asarinin (1) and incubated for 48 h. At the time of collection, the cells were harvested and washed twice with ice-cold phosphate buffered saline (PBS). The cells were fixed and permeabilized with 70% ice-cold ethanol at −20 °C for 4 h. The cells were washed once with PBS and resuspended in a staining solution containing propidium iodide (50 µg/mL) and RNase A (5 mg/mL). The cell suspensions were incubated for 30 min at room temperature in a dark place. After 30 min the suspensions were analyzed by fluorescence-activated cell sorting (FACS) cater-plus flow cytometry (guava easy cyte^TM, Merk Millipore, Darmstadt, Germany) using 5000 cells per group.

A2780 cells [11] = assay: Cell cycle analysis (PI staining, flow cytometry), A2780; assay type: cell-based, human; settings: A2780, 48 h
Protocol: as §5

caspase-3 [12] = assay: Western blot caspase activation, SKOV3; assay type: cell-based, human; settings: SKOV3, 48 h, procaspase level by Western blot
Protocol: as §3

caspase-8 [13] = assay: Western blot caspase activation, SKOV3; assay type: cell-based, human; settings: SKOV3, 48 h, procaspase level by Western blot
Protocol: as §3

caspase-9 [14] = assay: Western blot caspase activation, SKOV3; assay type: cell-based, human; settings: SKOV3, 48 h, procaspase level by Western blot
Protocol: as §3

IOSE80PC cells = assay: in vitro
Protocol: as §1, §2

SKOV3 cells [15] = assay: MTT assay with caspase inhibitors on (−)-asarinin (1)-induced cell death, SKOV3; assay type: cell-based, human; settings: SKOV3, inhibitor 50 μM pretreated 30 min, then (−)-asarinin (1) 60 μM 48 h
A2780 cells [16] = assay: MTT assay with caspase inhibitors on (−)-asarinin (1)-induced cell death, A2780; assay type: cell-based, human; settings: A2780, inhibitor 50 μM pretreated 30 min, then (−)-asarinin (1) 40 μM 48 h
[17] = IOSE80PC immortalized ovarian surface epithelial cells

Compound | IC50 (A2780 cells [1]; A2780, MTT, 48 h) [µM] | IC50 (SKOV3 cells [2]; SK-OV-3, SKOV3, MTT, 48 h) [µM] | IC50 at 48 h [3, 17] [µM] | IC50 (A2780 cells [1]; A2780, 48 h) [µM] | IC50 (SKOV3 cells [2]; SK-OV-3, 48 h) [µM] | IC50 at 48 h [3] [µM] | effect on (−)-asarinin (1)-induced cell death (SKOV3 cells [15]) | effect on (−)-asarinin (1)-induced cell death (A2780 cells [16]) | other results
C/C=C/C=C\CC/C=C/C=C/C(=O)NCC(C)C [Compound 8, (2E,4E,8Z,10E/Z)-N-isobutyldodeca-2,4,8,10-tetraenamide] | 101 ± 10.3 | > 200 | > 200 | – | – | – | – | – | –
COc1cc([C@@H]2OC[C@@H]3[C@H]2CO[C@H]3c2ccc3c(c2)OCO3)ccc1O [Compound 2, (−)-pluviatilol] | 102 ± 13.6 | 174 ± 9.42 | 179 ± 3.3 | – | – | – | – | – | –
c1cc2c(cc1[C@H]1OC[C@H]3[C@@H]1CO[C@H]3c1ccc3c(c1)OCO3)OCO2 [Compound 1, (−)-asarinin] | – | – | – | 38.5 ± 2.78 | 60.9 ± 5.01 | > 200 | – | – | effect on EBV-EA activation (EBV-EA activation): significant inhibitory effect; DNA synthesis [4]: inhibited DNA synthesis; activation of caspase-3 (caspase-3 [5]): markedly stimulated the activation; activation of caspase-8 (caspase-8 [6]): markedly stimulated the activation; activation of caspase-9 (caspase-9 [7]): markedly stimulated the activation; percentage of Annexin V-FITC positive/PI negative cells (A2780 cells [8]): up to 43%; percentage of Annexin V-FITC positive/PI negative cells (SKOV3 cells [9]): ≤ 48%; cell cycle arrest (SKOV3 cells [10]): failed to induce cell cycle arrest; cell cycle arrest (A2780 cells [11]): failed to induce cell cycle arrest; activation of caspase-3 (caspase-3 [12]): markedly stimulated the activation; activation of caspase-8 (caspase-8 [13]): markedly stimulated the activation; activation of caspase-9 (caspase-9 [14]): markedly stimulated the activation; cytotoxicity (in words) (IOSE80PC cells): did not show any cytotoxicity
CCC(=O)c1cc2c(cc1O)OCO2 [Compound 3, kakuol] | – | – | – | > 200 | > 200 | > 200 | – | – | –
C/C=C\CC/C=C/C=C/C(=O)NCC(C)C [Compound 7, (2E,4E,8Z)-N-isobutyldeca-2,4,8-trienamide] | > 200 | > 200 | > 200 | – | – | – | – | – | –
CCC(=O)c1cc2c(cc1OC)OCO2 [Compound 4, methylkakuol] | – | – | – | > 200 | > 200 | > 200 | – | – | –
z-DEVD-fmk | – | – | – | – | – | – | considerably attenuated | considerably attenuated | –
z-LEHD-fmk | – | – | – | – | – | – | considerably attenuated | considerably attenuated | –
z-IETD-fmk | – | – | – | – | – | – | considerably attenuated | considerably attenuated | –
